Measured values reported in publication PMC11892739, “Site-specific molecular glues for the 14-3-3/Tau pS214 protein–protein interaction via reversible covalent imine tethering” (RSC Medicinal Chemistry, 2025).

The compounds below were run against T1, 14-3-3ζ/Tau pS2 peptide (Homo sapiens, UniProt P63104) (assay: Differential scanning fluorimetry of 14-3-3 with Tau pS2 peptide and compounds). Conditions: compound 30-fold compared to 14-3-3ζ (75 μM), Tau pS2 peptide 25 μM, 14-3-3 2.5 μM; read-out: additional increase in melting temperature relative to the binary 14-3-3ζ/Tau pS2 peptide system.
T1 construct: made in house; host or cells: NiCo21 (DE3) E. coli
T1 sequence (P63104 1-245): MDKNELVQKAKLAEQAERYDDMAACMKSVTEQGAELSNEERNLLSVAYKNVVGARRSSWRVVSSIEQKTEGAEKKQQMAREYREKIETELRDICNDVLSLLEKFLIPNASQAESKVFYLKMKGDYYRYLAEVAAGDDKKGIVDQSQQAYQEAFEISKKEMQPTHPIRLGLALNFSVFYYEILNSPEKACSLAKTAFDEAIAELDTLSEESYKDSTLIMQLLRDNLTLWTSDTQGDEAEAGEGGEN
Assay type: binding
Method: Fig. 3 a Dose–response fluorescence anisotropy data of compound titrations to 10 nM FITC-labeled Tau pS2 peptide and 100 nM 14-3-3ζ. […] Mean of three individually performed experiments (see ESI ^† Fig. S8 for the protein titrations). e Differential scanning fluorimetry assay results. Identified melting temperatures (Tm) of 14-3-3γ alone (2.5 μM) and in the presence of Tau pS2 peptide (25 μM) and additionally with selected compounds (75 μM).
As an orthogonal method to profile the PPI stabilizing activity of selected compounds, differential scanning fluorimetry (DSF) assays were performed (Fig. 3e). […] Upon addition of compounds (1, 11, 13–14, and 20–22) to this PPI complex (30-fold compared to 14-3-3ζ), an additional increase in melting temperature between 0.9 °C and 2.1 °C was observed relative to the binary 14-3-3ζ/Tau pS2 peptide system. These observations are in agreement with the stabilization observed in the FA data and strongly testify to the molecular glue effect of our compound, by enhancing the stability of the PPI complex. […]
chromatography (HisTrap high performance cartridges, Cytiva). Typically two 5 mL columns were used for a 2 L culture in which the lysate was loaded on the column, washed with 10 CV wash buffer (50 mM Hepes, pH 8.0, 300 mM NaCl, 25 mM imidazole, 2 mM βME), and eluted with several fractions (2-4 CV) of elution buffer (50 mM Hepes, pH 8.0, 300 mM NaCl, 250 mM imidazole, 2 mM βME). Fractions containing the 14-3-3 protein were combined and dialyzed into 25 mM HEPES pH 8.0, 200 mM NaCl, 10 mM MgCl2, 2 mM βME, followed by dialysis into 25 mM HEPES, 100 mM NaCl, 10 mM MgCl2, 500 μM TCEP (adjusted to pH 8.0). Dialyzed protein was concentrated to ∼40 mg/mL, analyzed by Q -Tof LC/MS, and aliquots were flash -frozen for storage at −80 °C. For 14 -3-3σ∆c, 1 mg TEV per 100 mg purified protein was added to the dialysis to remove the purification tag. The cleaved sample was then again loaded on a 10 mL Ni-NTA column to separate the cleaved product from the expression tag and residual uncleaved protein. The flowthrough was loade d on a Superdex 75 pg 16/60 size exclusion column (GE Life Sciences) using 25 mM HEPES, 100 mM NaCl, 10 mM MgCl2, 500 μM TCEP (adjusted to pH = 8.0) as running buffer. Fractions containing the 14 -3-3 protein were pooled and concentrated to ∼60 mg/mL, analyzed Q -Tof LC/MS, and aliquots were flash -frozen for storage at −80°C. […]
The peptide screen was performed in a similar way as the 14-3-3ζ titration in the precence of compound.
14-3-3ζ was titrated in a 2-fold dilution series (starting at 400 µM 14-3-3ζ) to 100 nM of fluorescein-labeled peptides and 250 µM compound 18 (1% DMSO) in FA buffer (10 mM HEPES pH 7.4, 150 mM […]
Data shown is the average of a scientific triplicate.
Differential Scanning Fluorimetry (DSF)
DSF was performed using 40 µl samples containing 2.5 µM 14 -3-3ζ, 25 µM Tau peptide (Tau pS2, Tau pS214 or Tau pS324), […] (1% DMSO) and 5x ProteoOrange (Lumiprobe, 5000x stock in DMSO) in 10 mM HEPES, 150 mM NaCl, 50 µM TCEP (pH 7.4). The samples were heated from 35 °C to 79°C at a rate of 0.3 °C per 15 s in a C FX96 Touch Real-Time PCR Detection System (Bio -Rad). Fluorescence intensity was determined using excitation ( λem=525/20 nm) and emission ( λex=570/20 nm) filters.
Based on these melting curves, the negative derivative melting curve is obtained from which the melting temperature Tm was determined. All described melting temperatures are based on two or three independent experiments, from which the average and standard deviations were determined.
X-ray crystallography data collection and refinement
For x-ray crystallography, a C-terminally truncated 14-3-3σ protein (truncated after T231 to reduce flexibility) was used. This 14-3-3σ∆C was preincubated with Tau pS214 in complexation buffer (20 mM HEPES pH 7.5, 2 mM MgCl2 and 100 μM TCEP) in a 1:1.5 molar stoichiometry (protein:peptide) at a final protein concentration of 10.0 mg/mL. […]

Which ΔTm does the source give for `O=Cc1ccc(-n2ccnc2-c2ccccc2)cc1Br` [Compound 1] here?
The ΔTm was 0.9 to 2.1 °C.

For `Cc1ccc(-c2nccn2-c2ccc(C=O)c(Br)c2)cc1` [Compound 11], which ΔTm is on record?
Its ΔTm is 0.9 to 2.1 °C.

With `O=Cc1ccc(-n2ccnc2-c2ccc(F)cc2)cc1Br` [Compound 13] as the compound, how does the ΔTm read?
Its ΔTm is 0.9 to 2.1 °C.

Which ΔTm does the source give for `O=Cc1ccc(-n2ccnc2-c2ccc(Cl)cc2)cc1Br` [Compound 14] here?
The ΔTm was 0.9 to 2.1 °C.

With `O=Cc1ccc(-n2ccnc2-c2ccc(C(F)(F)F)cc2)cc1Br` [Compound 20] as the compound, how does the ΔTm read?
The ΔTm was 0.9 to 2.1 °C.

Which ΔTm does the source give for `O=Cc1ccc(-n2ccnc2-c2ccc(OC(F)(F)F)cc2)cc1Br` [Compound 21] here?
The ΔTm was 0.9 to 2.1 °C.

Which ΔTm does the source give for `N#Cc1ccc(-c2nccn2-c2ccc(C=O)c(Br)c2)cc1` [Compound 22] here?
Its ΔTm is 0.9 to 2.1 °C.
